According to patent US20160031925A1, “AZITHROMYCIN ANTIMICROBIAL DERIVATIVES WITH NON-ANTIBIOTIC PHARMACEUTICAL EFFECT” (priority 2013, published 2016):

Columns and labels:
[1] = system: Staphylococcus aureus ATTC 6538; assay: Antimicrobial disk susceptibility test (CLSI M2-A9), S. aureus; format: cell-based
Description: (§1) Test for the antimicrobial activity of the novel compounds may be performed according to the standards of Clinical and Laboratory Standards Institute, Performance Standards for Antimicrobial Disk Susceptibility Tests; approved Standard; M2-A), vol. 26 NO. 1 9th ed.
as §1, with “A test for” for “Test for”, “compounds were” for “compounds may be”, “ed. The samples were dissolved in 10 ml of sterile Milli-Q water by magnetic stirring overnight at 20° C.” for “ed.”
(§2) Two doses of the samples were tested in duplicate, a) and b). The size of the inhibition zones were measured in mm after incubation.

[2] = system: Escherichia coli ATCC 8739; assay: Antimicrobial disk susceptibility test (CLSI M2-A9), E. coli; format: cell-based
Description: as §1
as §1, with “A test for” for “Test for”, “compounds were” for “compounds may be”, “ed. The samples were dissolved in 10 ml of sterile Milli-Q water by magnetic stirring overnight at 20° C.” for “ed.”
as §2

[3] = system: Pseudomonas aeruginosa ATCC 9027; assay: Antimicrobial disk susceptibility test (CLSI M2-A9), P. aeruginosa; format: cell-based
Description: as §1
as §1, with “A test for” for “Test for”, “compounds were” for “compounds may be”, “ed. The samples were dissolved in 10 ml of sterile Milli-Q water by magnetic stirring overnight at 20° C.” for “ed.”
as §2

[4] = system: Klebsiella pneumonia ATCC 35657; assay: Antimicrobial disk susceptibility test (CLSI M2-A9), K. pneumonia; format: cell-based
Description: as §1
as §1, with “A test for” for “Test for”, “compounds were” for “compounds may be”, “ed. The samples were dissolved in 10 ml of sterile Milli-Q water by magnetic stirring overnight at 20° C.” for “ed.”
as §2

human airway epithelia = conditions: reference 6; cited from earlier work
[5] = 10 μg/disk, one value per organism (reference)

Molecule: CCC1OC(=O)C(C)C(OC2CC(C)(OC)CC(C)O2)C(C)C(OC2OC(C)CC(N(C)C)C2C)C(C)(O)CC(C)CN(C)C(C)C(O)C1(C)O (stereo not drawn) [PP007]
- size of the inhibition zone, S. aureus a) ([1]; 5 μg/disk, duplicate a)): <1 mm
- size of the inhibition zone, S. aureus b) ([1]; 5 μg/disk, duplicate b)): <1 mm
- size of the inhibition zone, S. aureus a) ([1]; 10 μg/disk, duplicate a)): <1 mm
- size of the inhibition zone, S. aureus b) ([1]; 10 μg/disk, duplicate b)): <1 mm
- size of the inhibition zone, E. coli a) ([2]; 5 μg/disk, duplicate a)): <1 mm
- size of the inhibition zone, E. coli b) ([2]; 5 μg/disk, duplicate b)): <1 mm
- size of the inhibition zone, E. coli a) ([2]; 10 μg/disk, duplicate a)): <1 mm
- size of the inhibition zone, E. coli b) ([2]; 10 μg/disk, duplicate b)): <1 mm
- size of the inhibition zone, P. aeruginosa a) ([3]; 5 μg/disk, duplicate a)): <1 mm
- size of the inhibition zone, P. aeruginosa b) ([3]; 5 μg/disk, duplicate b)): <1 mm
- size of the inhibition zone, P. aeruginosa a) ([3]; 10 μg/disk, duplicate a)): <1 mm
- size of the inhibition zone, P. aeruginosa b) ([3]; 10 μg/disk, duplicate b)): <1 mm
- size of the inhibition zone, K. pneumonia a) ([4]; 5 μg/disk, duplicate a)): <1 mm
- size of the inhibition zone, K. pneumonia b) ([4]; 5 μg/disk, duplicate b)): <1 mm
- size of the inhibition zone, K. pneumonia a) ([4]; 10 μg/disk, duplicate a)): <1 mm
- size of the inhibition zone, K. pneumonia b) ([4]; 10 μg/disk, duplicate b)): <1 mm

Molecule: CCC1OC(=O)C(C)C(OC2CC(C)(OC)C(C)C(C)O2)C(C)C(OC2CC(N(C)C)CC(C)O2)C(C)(O)CC(C)CN(C)C(C)C(O)C1(C)O (stereo not drawn) [PP008]
- size of the inhibition zone, S. aureus a) ([1]; 5 μg/disk, duplicate a)): <1 mm
- size of the inhibition zone, S. aureus b) ([1]; 5 μg/disk, duplicate b)): <1 mm
- size of the inhibition zone, S. aureus a) ([1]; 10 μg/disk, duplicate a)): <1 mm
- size of the inhibition zone, S. aureus b) ([1]; 10 μg/disk, duplicate b)): <1 mm
- size of the inhibition zone, E. coli a) ([2]; 5 μg/disk, duplicate a)): <1 mm
- size of the inhibition zone, E. coli b) ([2]; 5 μg/disk, duplicate b)): <1 mm
- size of the inhibition zone, E. coli a) ([2]; 10 μg/disk, duplicate a)): <1 mm
- size of the inhibition zone, E. coli b) ([2]; 10 μg/disk, duplicate b)): <1 mm
- size of the inhibition zone, P. aeruginosa a) ([3]; 5 μg/disk, duplicate a)): <1 mm
- size of the inhibition zone, P. aeruginosa b) ([3]; 5 μg/disk, duplicate b)): <1 mm
- size of the inhibition zone, P. aeruginosa a) ([3]; 10 μg/disk, duplicate a)): <1 mm
- size of the inhibition zone, P. aeruginosa b) ([3]; 10 μg/disk, duplicate b)): <1 mm
- size of the inhibition zone, K. pneumonia a) ([4]; 5 μg/disk, duplicate a)): <1 mm
- size of the inhibition zone, K. pneumonia b) ([4]; 5 μg/disk, duplicate b)): <1 mm
- size of the inhibition zone, K. pneumonia a) ([4]; 10 μg/disk, duplicate a)): <1 mm
- size of the inhibition zone, K. pneumonia b) ([4]; 10 μg/disk, duplicate b)): <1 mm

Molecule: CC[C@H]1OC(=O)[C@H](C)[C@@H](O[C@H]2C[C@@](C)(OC)[C@@H](O)[C@H](C)O2)[C@H](C)[C@@H](O[C@@H]2O[C@H](C)C[C@H](N(C)C)[C@H]2O)[C@](C)(O)C[C@@H](C)CN(C)[C@H](C)[C@@H](O)[C@]1(C)O [azithromycin]
- effect on transepithelial electrical resistance / processing of tight junction proteins (human airway epithelia): may increase the transepithelial electrical resistance

Molecule: CC[C@H]1OC(=O)[C@H](C)[C@@H](O[C@H]2C[C@@](C)(OC)[C@@H](O)[C@H](C)O2)[C@H](C)[C@@H](O[C@@H]2O[C@H](C)C[C@H](N(C)C)[C@H]2O)[C@](C)(O)C[C@@H](C)C(=O)[C@H](C)[C@@H](O)[C@]1(C)O [erythromycin]
- effect on transepithelial electrical resistance / processing of tight junction proteins (human airway epithelia): not observed

Molecule: Gentamicin [reference compound]
- size of the inhibition zone, S. aureus [1, 5]: 30.4 mm
- size of the inhibition zone, E. coli [2, 5]: 27.9 mm
- size of the inhibition zone, P. aeruginosa [3, 5]: 27.2 mm
- size of the inhibition zone, K. pneumonia [4, 5]: 24.7 mm

Molecule: penicillin
- effect on transepithelial electrical resistance / processing of tight junction proteins (human airway epithelia): not observed
